This passage reports IC50 results from patent US20250145585A1, “HETEROCYCLIC INHIBITORS OF IGF-1R FOR TREATMENT OF DISEASE” (HORIZON THERAPEUTICS IRELAND DAC, priority 2023, published 2025).

The test concerns the target T1, IGF-1R (Homo sapiens, UniProt P08069).
T1 construct: expressed in transfected cells
Description: Example B-2: IGF-1R Assay (PathHunter cell lines, EC80 agonist challenge, chemiluminescent detection). Type of test: cell-based. The conditions noted are these: PathHunter cells, compound 60 minutes at 37° C., EC80 agonist 3 hours; read-out: IC50, Biological Activity against IGF-1R (Table B2). The gist of the method: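 PathHunter cells were pre-incubated with compound for 60 min at 37° C (1% vehicle), then challenged with EC80 agonist for 3 h at room temperature. Chemiluminescent detection after 1 h gave % inhibition relative to EC80 and vehicle controls, from which IC50 was derived.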

T1 sequence (P08069 31-1367): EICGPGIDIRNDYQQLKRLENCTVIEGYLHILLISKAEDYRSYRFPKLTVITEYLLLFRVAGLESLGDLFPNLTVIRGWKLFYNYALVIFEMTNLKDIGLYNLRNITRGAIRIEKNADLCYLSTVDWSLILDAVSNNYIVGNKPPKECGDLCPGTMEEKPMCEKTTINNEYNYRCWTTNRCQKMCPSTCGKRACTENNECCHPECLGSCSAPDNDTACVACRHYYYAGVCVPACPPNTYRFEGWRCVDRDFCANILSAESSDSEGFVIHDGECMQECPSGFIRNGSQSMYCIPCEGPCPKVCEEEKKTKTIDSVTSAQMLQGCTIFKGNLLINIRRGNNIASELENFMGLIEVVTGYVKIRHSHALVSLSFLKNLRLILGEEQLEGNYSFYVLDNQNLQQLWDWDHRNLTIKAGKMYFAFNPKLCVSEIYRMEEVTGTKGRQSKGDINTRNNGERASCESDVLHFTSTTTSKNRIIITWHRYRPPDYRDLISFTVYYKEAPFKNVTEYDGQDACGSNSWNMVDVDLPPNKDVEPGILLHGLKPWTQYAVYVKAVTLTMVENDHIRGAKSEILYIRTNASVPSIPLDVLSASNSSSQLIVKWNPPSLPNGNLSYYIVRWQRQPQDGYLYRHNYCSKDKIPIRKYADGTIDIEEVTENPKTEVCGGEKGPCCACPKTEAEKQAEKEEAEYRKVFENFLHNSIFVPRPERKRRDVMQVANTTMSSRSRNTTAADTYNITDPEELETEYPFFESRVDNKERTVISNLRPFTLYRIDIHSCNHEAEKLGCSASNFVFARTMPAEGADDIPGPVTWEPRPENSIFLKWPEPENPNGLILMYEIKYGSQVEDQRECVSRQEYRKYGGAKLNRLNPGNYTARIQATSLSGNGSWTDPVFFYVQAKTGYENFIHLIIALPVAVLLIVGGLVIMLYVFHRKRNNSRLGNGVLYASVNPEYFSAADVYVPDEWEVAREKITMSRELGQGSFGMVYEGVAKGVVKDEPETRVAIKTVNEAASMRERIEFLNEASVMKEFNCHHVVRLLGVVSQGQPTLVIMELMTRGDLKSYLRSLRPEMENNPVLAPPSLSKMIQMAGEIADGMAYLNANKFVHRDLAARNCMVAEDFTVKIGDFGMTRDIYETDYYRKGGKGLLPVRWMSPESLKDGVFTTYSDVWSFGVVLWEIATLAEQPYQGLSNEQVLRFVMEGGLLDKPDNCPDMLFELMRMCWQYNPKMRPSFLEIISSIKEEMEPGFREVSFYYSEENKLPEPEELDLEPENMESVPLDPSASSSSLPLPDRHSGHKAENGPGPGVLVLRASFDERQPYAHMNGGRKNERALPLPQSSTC

Turning to `CC1(C)C(=O)N(c2ccc3c(c2)N(C(=O)C2CC2)CC32CCC2)C(=O)N1Cc1ccnc(NC2CCOCC2)c1` [Compound 237, 3-(1′-(cyclopropanecarbonyl)spiro [cyclobutane-1,3′-indolin]-6′-yl)-5,5-dimethyl-1-((2-((tetrahydro-2H-pyran-4-yl)amino)pyridin-4-yl)methyl)imidazolidine-2,4-dione], the IC50 was not above 500 nM.
In the case of `CO[C@@H](C)CNc1cc(CN2C(=O)N(c3ccc4c(c3)N(S(C)(=O)=O)CC43CCC3)C(=O)C2(C)C)ccn1` [Compound 238, (S)-1-((2-((2-methoxypropyl)amino)pyridin-4-yl)methyl)-5,5-dimethyl-3-(1′-(methylsulfonyl)spiro[cyclobutane-1,3′-indolin]-6′-yl)imidazolidine-2,4-dione], the IC50 is not above 500 nM.
For the compound `CO[C@H](C)CNc1cc(CN2C(=O)N(c3ccc4c(c3)N(S(C)(=O)=O)CC43CCC3)C(=O)C2(C)C)ccn1` [Compound 239, (R)-1-((2-((2-methoxypropyl)amino)pyridin-4-yl)methyl)-5,5-dimethyl-3-(1′-(methylsulfonyl)spiro[cyclobutane-1,3′-indolin]-6′-yl)imidazolidine-2,4-dione], the IC50 was not above 500 nM.
With `CC1(C)C(=O)N(c2ccc3c(c2)N(S(C)(=O)=O)CC32CCC2)C(=O)N1Cc1ccnc(N[C@@H]2C[C@@H]2F)c1` [Compound 240, 1-((2-(((1R,2S)-2-fluorocyclopropyl)amino)pyridin-4-yl)methyl)-5,5-dimethyl-3-(1′-(methylsulfonyl)spiro[cyclobutane-1,3′-indolin]-6′-yl)imidazolidine-2,4-dione], the IC50 was not above 500 nM.
Regarding `CC1(C)CN(S(C)(=O)=O)c2cc(N3C(=O)N(Cc4ccnc(N[C@H]5CCOC[C@@H]5F)c4)C(C)(C)C3=O)ccc21` [Compound 241, 3-(3,3-dimethyl-1-(methylsulfonyl)indolin-6-yl)-1-((2-(((3R,4S)-3-fluorotetrahydro-2H-pyran-4-yl)amino)pyridin-4-yl)methyl)-5,5-dimethylimidazolidine-2,4-dione], the IC50 is not above 500 nM.
Turning to `C[C@@H](Nc1cc(CN2C(=O)N(c3ccc4c(c3)N(S(C)(=O)=O)CC43CCC3)C(=O)C2(C)C)ccn1)c1cccnc1` [Compound 242, (R)-5,5-dimethyl-3-(1′-(methylsulfonyl)spiro[cyclobutane-1,3′-indolin]-6′-yl)-1-((2-((1-(pyridin-3-yl)ethyl)amino)pyridin-4-yl)methyl)imidazolidine-2,4-dione], the IC50 is not above 500 nM.
With `C[C@H](Nc1cc(CN2C(=O)N(c3ccc4c(c3)N(S(C)(=O)=O)CC43CCC3)C(=O)C2(C)C)ccn1)c1cccnc1` [Compound 243, (S)-5,5-dimethyl-3-(1′-(methylsulfonyl)spiro[cyclobutane-1,3′-indolin]-6′-yl)-1-((2-((1-(pyridin-3-yl)ethyl)amino)pyridin-4-yl)methyl)imidazolidine-2,4-dione], the IC50 was not above 500 nM.
Regarding `CC1(C)C(=O)N(c2ccc3c(c2)N(S(C)(=O)=O)CC32CCC2)C(=O)N1Cc1ccnc(NCc2cccnc2)c1` [Compound 244, 5,5-dimethyl-3-(1′-(methylsulfonyl)spiro[cyclobutane-1,3′-indolin]-6′-yl)-1-((2-((pyridin-3-ylmethyl)amino)pyridin-4-yl)methyl)imidazolidine-2,4-dione], the IC50 is not above 500 nM.
For `CC1(C)CN(S(C)(=O)=O)c2cc(N3C(=O)N(Cc4ccnc(NCc5cc[nH]n5)c4)C(C)(C)C3=O)ccc21` [Compound 245, 1-((2-(((1H-pyrazol-3-yl)methyl)amino)pyridin-4-yl)methyl)-3-(3,3-dimethyl-1-(methylsulfonyl)indolin-6-yl)-5,5-dimethylimidazolidine-2,4-dione], the IC50 is not above 500 nM.
In the case of `Cn1ccc(CNc2cc(CN3C(=O)N(c4ccc5c(c4)N(S(C)(=O)=O)CC5(C)C)C(=O)C3(C)C)ccn2)n1` [Compound 246, 3-(3,3-dimethyl-1-(methylsulfonyl)indolin-6-yl)-5,5-dimethyl-1-((2-(((1-methyl-1H-pyrazol-3-yl)methyl)amino)pyridin-4-yl)methyl)imidazolidine-2,4-dione] it was not above 500 nM; in that of `[2H]C([2H])([2H])Nc1cc(CN2C(=O)N(c3ccc4c(c3)N(S(C)(=O)=O)CC4(C)C)C(=O)C2(C)C)ccn1` [Compound 247, 3-(3,3-dimethyl-1-(methylsulfonyl)indolin-6-yl)-5,5-dimethyl-1-((2-((methyl-d3)amino)pyridin-4-yl)methyl)imidazolidine-2,4-dione], not above 500 nM.
To `CC1(C)CN(S(=O)(=O)C2CC2)c2cc(N3C(=O)N(Cc4ccnc(NC5CCOCC5)c4)C(C)(C)C3=O)ccc21` [Compound 248, 3-(1-(cyclopropylsulfonyl)-3,3-dimethylindolin-6-yl)-5,5-dimethyl-1-((2-((tetrahydro-2H-pyran-4-yl)amino)pyridin-4-yl)methyl)imidazolidine-2,4-dione] belongs not above 500 nM.
In the case of `CC1(C)Cc2ccc(N3C(=O)N(Cc4ccnc(N[C@H]5[C@@H]6COC[C@@H]65)c4)C(C)(C)C3=O)cc2O1` [Compound 249, 1-((2-(((1R,5S,6r)-3-oxabicyclo[3.1.0]hexan-6-yl)amino)pyridin-4-yl)methyl)-3-(2,2-dimethyl-2,3-dihydrobenzofuran-6-yl)-5,5-dimethylimidazolidine-2,4-dione], the IC50 is not above 500 nM.
For the compound `CC1(C)C(=O)N(c2ccc3c(c2)CCS3(=O)=O)C(=O)N1Cc1ccnc(N[C@H]2[C@@H]3COC[C@@H]32)c1` [Compound 250, 1-((2-(((1R,5S,6r)-3-oxabicyclo[3.1.0]hexan-6-yl)amino)pyridin-4-yl)methyl)-3-(1,1-dioxido-2,3-dihydrobenzo[b]thiophen-5-yl)-5,5-dimethylimidazolidine-2,4-dione], the IC50 is more than 10000 nM.
Turning to `CC1(C)C(=O)N(c2ccc3c(c2)N(S(C)(=O)=O)CC3)C(=O)N1Cc1ccnc(N[C@H]2[C@@H]3COC[C@@H]32)c1` [Compound 251, 1-((2-(((1R,5S,6r)-3-oxabicyclo[3.1.0]hexan-6-yl)amino)pyridin-4-yl)methyl)-5,5-dimethyl-3-(1-(methylsulfonyl)indolin-6-yl)imidazolidine-2,4-dione], the IC50 was more than 10000 nM.
For `CC1(C)C(=O)N(c2ccc3c(c2)N(C(=O)C2CC2)CC3)C(=O)N1Cc1ccnc(N[C@H]2[C@@H]3COC[C@@H]32)c1` [Compound 252, 1-((2-(((1R,5S,6r)-3-oxabicyclo[3.1.0]hexan-6-yl)amino)pyridin-4-yl)methyl)-3-(1-(cyclopropanecarbonyl)indolin-6-yl)-5,5-dimethylimidazolidine-2,4-dione], the IC50 is more than 10000 nM.
Take `CC1(C)CN(C(N)=O)c2cc(N3C(=O)N(Cc4ccnc(N[C@H]5[C@@H]6COC[C@@H]65)c4)C(C)(C)C3=O)ccc21` [Compound 253, 6-(3-((2-(((1R,5S,6r)-3-oxabicyclo[3.1.0]hexan-6-yl)amino)pyridin-4-yl)methyl)-4,4-dimethyl-2,5-dioxoimidazolidin-1-yl)-3,3-dimethylindoline-1-carboxamide]: the IC50 was not above 500 nM.
In the case of `COC[C@@H](C)Nc1cc(CN2C(=O)N(c3cc(C(C)(C)C)nn3C)C(=O)C2(C)C)ccn1` [Compound 259, (R)-3-(3-(tert-butyl)-1-methyl-1H-pyrazol-5-yl)-1-((2-((1-methoxypropan-2-yl)amino)pyridin-4-yl)methyl)-5,5-dimethylimidazolidine-2,4-dione] it was not above 500 nM; in that of `Cn1nc(C(C)(C)C)cc1N1C(=O)N(Cc2ccnc(NC3CCOCC3)c2)C(C)(C)C1=O` [Compound 260, 3-(3-(tert-butyl)-1-methyl-1H-pyrazol-5-yl)-5,5-dimethyl-1-((2-((tetrahydro-2H-pyran-4-yl)amino)pyridin-4-yl)methyl)imidazolidine-2,4-dione], 2000 to 10000 nM; in that of `Cn1nc(C(C)(C)C)cc1N1C(=O)N(Cc2ccnc(N[C@H]3CCOC3)c2)C(C)(C)C1=O` [Compound 261, (S)-3-(3-(tert-butyl)-1-methyl-1H-pyrazol-5-yl)-5,5-dimethyl-1-((2-((tetrahydrofuran-3-yl)amino)pyridin-4-yl)methyl)imidazolidine-2,4-dione], more than 10000 nM.
Regarding `C[C@@H](CC#N)Nc1cc(CN2C(=O)N(c3cc(C(C)(C)C)nn3C)C(=O)C2(C)C)ccn1` [Compound 262, (S)-3-((4-((3-(3-(tert-butyl)-1-methyl-1H-pyrazol-5-yl)-5,5-dimethyl-2,4-dioxoimidazolidin-1-yl)methyl)pyridin-2-yl)amino)butanenitrile], the IC50 is more than 10000 nM.
Take `CC(C)c1ccc(N2C(=O)N(Cc3ccnc(N[C@H]4[C@@H]5COC[C@@H]54)c3)C(C)(C)C2=O)cc1C#N` [Compound 279, 5-(3-((2-(((1R,5S,6r)-3-oxabicyclo[3.1.0]hexan-6-yl)amino)pyridin-4-yl)methyl)-4,4-dimethyl-2,5-dioxoimidazolidin-1-yl)-2-isopropylbenzonitrile]: the IC50 is not above 500 nM.
In the case of `CC(C)c1ccc(N2C(=O)N(Cc3ccnc(N[C@H]4[C@@H]5COC[C@@H]54)c3)C(C)(C)C2=O)cc1OCCN(C)C` [Compound 280, 1-((2-(((1R,5S,6r)-3-oxabicyclo[3.1,0]hexan-6-yl)amino)pyridin-4-yl)methyl)-3-(3-(2-(dimethylamino)ethoxy)-4-isopropylphenyl)-5,5-dimethylimidazolidine-2,4-dione] it was not above 500 nM; in that of `CN(C)CC(=O)Nc1cc(N2C(=O)N(Cc3ccnc(N[C@H]4[C@@H]5COC[C@@H]54)c3)C(C)(C)C2=O)ccc1OC(F)(F)F` [Compound 281, N-(5-(3-((2-(((1R,5S,6r)-3-oxabicyclo[3.1.0]hexan-6-yl)amino)pyridin-4-yl)methyl)-4,4-dimethyl-2,5-dioxoimidazolidin-1-yl)-2-(trifluoromethoxy)phenyl)-2-(dimethylamino)acetamide], not above 500 nM.
